# Patent US8741897B2, “Glucocorticoid mimetics, methods of making them, pharmaceutical compositions and uses thereof” (Boehringer Ingelheim Pharmaceuticals Inc., priority 2003, dated 2014)
# Key:
# [1] = tested on: glucocorticoid receptor function; assay: one or more of the above assays (GR binding and glucocorticoid receptor cell assays: aromatase, IL-6, TAT, MMTV-Luc, IL-8, ICAM-Luc); assay type: cell-based; settings: assay not specified per compound
# [2] = biological target: T1, human glucocorticoid receptor (GR) complex (Homo sapiens, UniProt P04150); assay: Glucocorticoid receptor competitive binding assay (fluorescence polarization, TAMRA-labeled dexamethasone probe); settings: compounds of Formula (IA)
# T1 construct: made in house; host or cells: insect expression system (baculovirus lysate)
# T1 sequence (P04150 1-777): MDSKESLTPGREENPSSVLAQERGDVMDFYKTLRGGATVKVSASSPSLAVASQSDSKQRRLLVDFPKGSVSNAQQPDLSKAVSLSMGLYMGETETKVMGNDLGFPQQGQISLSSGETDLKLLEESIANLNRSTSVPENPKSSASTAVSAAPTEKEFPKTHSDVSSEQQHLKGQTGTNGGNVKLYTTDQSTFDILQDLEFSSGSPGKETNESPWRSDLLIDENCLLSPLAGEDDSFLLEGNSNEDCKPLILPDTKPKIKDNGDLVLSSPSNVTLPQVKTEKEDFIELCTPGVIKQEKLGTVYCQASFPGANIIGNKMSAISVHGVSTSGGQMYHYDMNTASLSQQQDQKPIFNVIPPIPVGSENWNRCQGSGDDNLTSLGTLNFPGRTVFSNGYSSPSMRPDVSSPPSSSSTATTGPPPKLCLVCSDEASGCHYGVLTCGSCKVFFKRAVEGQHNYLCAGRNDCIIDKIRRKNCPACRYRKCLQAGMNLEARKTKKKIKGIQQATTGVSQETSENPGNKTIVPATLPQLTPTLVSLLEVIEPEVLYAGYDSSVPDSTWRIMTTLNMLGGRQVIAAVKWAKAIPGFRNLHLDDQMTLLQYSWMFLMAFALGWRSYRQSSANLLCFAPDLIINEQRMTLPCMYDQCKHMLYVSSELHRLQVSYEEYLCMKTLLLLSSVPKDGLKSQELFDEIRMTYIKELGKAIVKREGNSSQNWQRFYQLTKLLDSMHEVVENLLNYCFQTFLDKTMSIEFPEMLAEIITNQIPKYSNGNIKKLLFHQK
# Summary of the method: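 Fluorescence-polarization competition against 15 nM TAMRA-dexamethasone (stock added to the mix) for human GR complex from baculovirus lysate diluted 1:170. Buffer: 10 mM TES, 50 mM KCl, 20 mM Na2MoO4, 1.5 mM EDTA, 0.04% CHAPS, 10% glycerol, 1 mM DTT, pH 7.4. IC50 from 4-parameter logistic fit.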
Compound,activity in the GR binding assay [2],activity as agonists of the glucocorticoid receptor function in one or more of the above assays [1]
"Cc1cc2[nH]c(CC(O)(CC(C)(C)c3cc(F)ccc3C)C(F)(F)F)cc2cn1 (stereo not drawn) [1,1,1-Trifluoro-4-(5-fluoro-2-methylphenyl)-4-methyl-2-(6-methyl-1H-pyrrolo[3,2-c]pyridin-2-ylmethyl)pentan-2-ol]",potent activity,potent agonists
"CC(C)(CC(O)(Cc1cc2ccccc2[nH]1)C(F)(F)F)c1ccc(F)cc1 (stereo not drawn) [1,1,1-Trifluoro-4-(4-fluorophenyl)-2-(1H-indol-2-ylmethyl)-4-methylpentan-2-ol]",potent activity,potent agonists
"CC(C)(CC(O)(Cc1ccnc(Br)c1)C(F)(F)F)c1cc(F)ccc1O (stereo not drawn) [2-[3-(2-Bromopyridin-4-ylmethyl)-4,4,4-trifluoro-3-hydroxy-1,1-dimethylbutyl]-4-fluorophenol]",potent activity,potent agonists
"Cc1cc2[nH]c(CC(O)(CC(C)(C)c3cc(Cl)cc4c3OCC4)C(F)(F)F)cc2cn1 (stereo not drawn) [4-(5-Chloro-2,3-dihydrobenzofuran-7-yl)-1,1,1-trifluoro-4-methyl-2-(6-methyl-1H-pyrrolo[3,2-c]pyridin-2-ylmethyl)pentan-2-ol]",potent activity,potent agonists
"CC(C)(CC(O)(Cc1ccnc2ccccc12)C(F)(F)F)c1cccc(-c2ccccc2)c1 (stereo not drawn) [4-Biphenyl-3-yl-1,1,1-trifluoro-4-methyl-2-quinolin-4-ylmethylpentan-2-ol]",potent activity,potent agonists
"CN(C)c1ccc(C(C)(C)CC(O)(Cc2ccnc3ccccc23)C(F)(F)F)cc1 (stereo not drawn) [4-(4-Dimethylaminophenyl)-1,1,1-trifluoro-4-methyl-2-quinolin-4-ylmethylpentan-2-ol]",potent activity,potent agonists
"CC(C)(CC(O)(Cc1cc2cnccc2[nH]1)C(F)(F)F)c1cc(F)cc2c1OCC2 (stereo not drawn) [1,1,1-Trifluoro-4-(5-fluoro-2,3-dihydrobenzofuran-7-yl)-4-methyl-2-(1H pyrrolo[3,2-c]pyridin-2-ylmethyl)pentan-2-ol]",potent activity,potent agonists
"Cc1ccc(F)cc1C(C)(C)CC(O)(Cc1cc2cc(Cl)ncc2[nH]1)C(F)(F)F (stereo not drawn) [2-(5-Chloro-1H-pyrrolo[2,3-c]pyridin-2-ylmethyl)-1,1,1-trifluoro-4-(5-fluoro-2-methylphenyl)-4-methylpentan-2-ol]",potent activity,potent agonists
COc1ccc(F)cc1C(C)(C)CC(O)(Cc1ccnc(C#N)c1)C(F)(F)F (stereo not drawn) [4-[4-(5-Fluoro-2-methoxyphenyl)-2-hydroxy-4-methyl-2-trifluoromethylpentyl]pyridine-2-carbonitrile],potent activity,potent agonists
"COc1ccc(F)cc1C(C)(C)CC(O)(Cc1cc2nnccc2[nH]1)C(F)(F)F (stereo not drawn) [1,1,1-Trifluoro-4-(5-fluoro-2-methoxyphenyl)-4-methyl-2-(5H-pyrrolo[3,2-c]pyridazin-6-ylmethyl)pentan-2-ol]",potent activity,potent agonists

# More lines, main results first:
activity in the GR binding assay [2],Compound,activity as agonists of the glucocorticoid receptor function in one or more of the above assays [1]
potent activity,"CC(C)(CC(O)(Cc1cc2ccncc2[nH]1)C(F)(F)F)c1cc(Br)cc2c1OCC2 (stereo not drawn) [4-(5-Bromo-2,3-dihydrobenzofuran-7-yl)-1,1,1-trifluoro-4-methyl-2-(1H-pyrrolo[2,3-c]pyridin-2-ylmethyl)pentan-2-ol]",potent agonists
potent activity,"CC(C)(CC(O)(Cc1ccnc2ccccc12)C(F)(F)F)c1cccc(Cl)c1 (stereo not drawn) [4-(3-Chlorophenyl)-1,1,1-trifluoro-4-methyl-2-quinolin-4-ylmethylpentan-2-ol]",potent agonists
potent activity,"Cc1ccc(F)c2[nH]c(CC(O)(CC(C)(C)c3ccc(F)cc3O)C(F)(F)F)cc12 (stereo not drawn) [5-Fluoro-2-[4,4,4-trifluoro-3-(7-fluoro-4-methyl-1H-indol-2-ylmethyl)-3-hydroxy-1,1-dimethylbutyl]phenol]",potent agonists
potent activity,"CC(C)(CC(O)(Cc1cc2ccccc2[nH]1)C(F)(F)F)c1cccc(Br)c1 (stereo not drawn) [4-(3-Bromophenyl)-1,1,1-trifluoro-2-(1H-indol-2-ylmethyl)-4-methylpentan-2-ol]",potent agonists
potent activity,"COc1cc2cc(CC(O)(CC(C)(C)c3cc(F)ccc3OC)C(F)(F)F)[nH]c2cn1 (stereo not drawn) [1,1,1-Trifluoro-4-(5-fluoro-2-methoxyphenyl)-2-(5-methoxy-1H-pyrrolo[2,3-c]pyridin-2-ylmethyl)-4-methylpentan-2-ol]",potent agonists
potent activity,"CC(C)(CC(O)(Cc1cc2ccccc2[nH]1)C(F)(F)F)c1cccc(F)c1 (stereo not drawn) [1,1,1-Trifluoro-4-(3-fluorophenyl)-2-(1H-indol-2-ylmethyl)-4-methylpentan-2-ol]",potent agonists
potent activity,"Cc1ccc(C)c(C(C)(C)CC(O)(Cc2ccnc3ccccc23)C(F)(F)F)c1 (stereo not drawn) [4-(2,5-Dimethylphenyl)-1,1,1-trifluoro-4-methyl-2-quinolin-4-ylmethylpentan-2-ol]",potent agonists
potent activity,"Cc1ccc(C)c(C(C)(C)CC(O)(Cc2cc3ccccc3[nH]2)C(F)(F)F)c1 (stereo not drawn) [4-(2,5-Dimethylphenyl)-1,1,1-trifluoro-2-(1H-indol-2-ylmethyl)-4-methylpentan-2-ol]",potent agonists
potent activity,"COc1ccc(F)cc1C(C)(C)CC(O)(Cc1ccnc2c(C)cc(C)cc12)C(F)(F)F (stereo not drawn) [2-(6,8-Dimethylquinolin-4-ylmethyl)-1,1,1-trifluoro-4-(5-fluoro-2-methoxyphenyl)-4-methylpentan-2-ol]",potent agonists
potent activity,"COc1ccc(F)cc1C(C)(C)CC(O)(Cc1cc2c(C)nccc2[nH]1)C(F)(F)F (stereo not drawn) [1,1,1-Trifluoro-4-(5-fluoro-2-methoxyphenyl)-4-methyl-2-(4-methyl-1H pyrrolo[3,2-c]pyridin-2-ylmethyl)pentan-2-ol]",potent agonists
potent activity,"COc1ccc(F)cc1C(C)(C)CC(O)(Cc1ccnc2cc(C)ccc12)C(F)(F)F (stereo not drawn) [1,1,1-Trifluoro-4-(5-fluoro-2-methoxyphenyl)-4-methyl-2-(7-methylquinolin-4-ylmethyl)pentan-2-ol]",potent agonists
potent activity,"CC(C)(CC(O)(Cc1cc2ccccc2[nH]1)C(F)(F)F)c1cc(F)ccc1OC(F)F (stereo not drawn) [4-(2-Difluoromethoxy-5-fluorophenyl)-1,1,1-trifluoro-2-(1H-indol-2-ylmethyl)-4-methylpentan-2-ol]",potent agonists
potent activity,"CC(C)(CC(O)(Cc1ccnc2ccccc12)C(F)(F)F)c1ccc(C(F)(F)F)cc1 (stereo not drawn) [1,1,1-Trifluoro-4-methyl-2-quinolin-4-ylmethyl-4-(4-trifluoromethylphenyl)pentan-2-ol]",potent agonists
potent activity,"CC(C)(CC(O)(Cc1ccnc2ccccc12)C(F)(F)F)c1cc(F)ccc1O (stereo not drawn) [4-Fluoro-2-(4,4,4-trifluoro-3-hydroxy-1,1-dimethyl-3-quinolin-4-ylmethylbutyl)phenol]",potent agonists
